Data on eleven compounds can be found in paper PMC11421147 (Journal of Enzyme Inhibition and Medicinal Chemistry, 2024).

The target in assay [1] is T1, human sPLA2 hG-IIA (Homo sapiens, UniProt P14555).
T1 sequence (P14555 21-144): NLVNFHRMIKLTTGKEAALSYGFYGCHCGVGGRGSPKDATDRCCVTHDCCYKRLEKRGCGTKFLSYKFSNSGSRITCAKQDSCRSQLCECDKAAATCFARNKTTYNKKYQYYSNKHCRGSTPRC
Nature of the assay: Inhibition of sPLA2 activity. Format: biochemical. As to conditions: IC50 ± standard deviation; for IC50: IC50 sPLA2(IIA).

For assay [2], the target named is α-glucosidase (Saccharomyces cerevisiae, UniProt P53341). Briefly: α-Glucosidase inhibitory activity. Format: biochemical.
α-glucosidase, sequence (P53341 whole entry): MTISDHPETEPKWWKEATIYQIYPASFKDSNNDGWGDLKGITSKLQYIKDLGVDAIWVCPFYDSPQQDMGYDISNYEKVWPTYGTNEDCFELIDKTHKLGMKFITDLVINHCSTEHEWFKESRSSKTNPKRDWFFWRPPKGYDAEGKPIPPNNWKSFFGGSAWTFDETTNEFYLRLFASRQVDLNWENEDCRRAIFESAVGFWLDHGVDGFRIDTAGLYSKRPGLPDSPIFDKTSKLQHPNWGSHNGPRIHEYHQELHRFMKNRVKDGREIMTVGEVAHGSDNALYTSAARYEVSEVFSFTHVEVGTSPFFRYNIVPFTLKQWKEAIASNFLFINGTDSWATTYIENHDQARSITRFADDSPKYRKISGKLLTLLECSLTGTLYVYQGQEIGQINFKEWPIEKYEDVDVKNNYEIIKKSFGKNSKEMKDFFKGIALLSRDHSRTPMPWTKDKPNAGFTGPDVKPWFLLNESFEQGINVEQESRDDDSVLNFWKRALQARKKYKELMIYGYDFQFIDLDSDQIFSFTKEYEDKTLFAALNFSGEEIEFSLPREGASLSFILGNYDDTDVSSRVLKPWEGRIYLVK
Assay [3] relates to human blood paraoxonase-1 (PON1). The settings on record: cited from earlier work.

Structures are written as SMILES.

In general, IC50 refers to the midpoint of a concentration-inhibition curve. A lower IC50 goes with inhibition by little substance. Regarding `O=S(=O)(NNc1nc2ccccc2nc1Cl)c1ccc(C(F)(F)F)cc1` [Compound 5c, N’-(3-chloroquinoxalin-2-yl)-4-(trifluoromethyl) benzenesulfonohydrazide], the IC50 in assay [1] amounted to 2590 ± 292 nM; in assay [2], 29.4 ± 0.532 µM.
Turning to `CC(C)NCC(O)COc1cccc2[nH]ccc12` (stereo not shown) [pindolol], the “type of inhibition of PON1” value in assay [3] is on record as “non-competitive inhibition”.
`CC(C)NCC(O)COc1ccc(CC(N)=O)cc1` (stereo not shown) [atenolol]: the “type of inhibition of PON1” value in assay [3] was “non-competitive inhibition”.
As for `Cc1ccc(S(=O)(=O)NNc2nc3ccccc3nc2NNS(=O)(=O)c2ccc(C)cc2)cc1` [Compound 6b, N’,N’’’-(quinoxaline-2,3-diyl)bis(4-methylbenzenesulfonohydrazide)], the IC50 in assay [1] worked out at 76.5 ± 1.7 nM; in assay [2], 0.96 ± 0.112 µM.
On the same counts, the results for `O=S(=O)(NNc1nc2ccccc2nc1Cl)c1ccc(Br)cc1` [Compound 5d, 4-Bromo-N’-(3-chloroquinoxalin-2-yl)benzenesulfonohydrazide] are 2120 ± 132 nM and 13.3 ± 0.263 µM.
For `CC(C)(C)NCC(O)COc1cccc2c1CC(O)C(O)C2` (stereo not shown) [nadolol], in assay [3], the “type of inhibition of PON1” value is on record as “competitive inhibition”.
For `O=S(=O)(NNc1nc2ccccc2nc1NNS(=O)(=O)c1ccc(C(F)(F)F)cc1)c1ccc(C(F)(F)F)cc1` [Compound 6c, N’,N’’’-(quinoxaline-2,3-diyl)bis(4-trifluoromethylbenzenesulfonohydrazide)], the IC50 in assay [1] stood at 2240 ± 1050 nM; in assay [2] it was 0.0953 ± 0.0054 µM.
Regarding `O=S(=O)(NNc1nc2ccccc2nc1NNS(=O)(=O)c1ccc(Br)cc1)c1ccc(Br)cc1` [Compound 6d, N’,N’’’-(quinoxaline-2,3-diyl)bis(4-bromobenzenesulfonohydrazide)], in assay [1], it took 4930 ± 241 nM to reach half-maximal inhibition (IC50) and the “IC50 sPLA2(IIA)” value is “high micromolar”. For the same compound, in assay [2], the IC50 came to 8.29 ± 0.367 µM.
Turning to `Cc1ccc(S(=O)(=O)NNc2nc3ccccc3nc2Cl)cc1` [Compound 5b, N’-(3-chloroquinoxalin-2-yl)-4-methylbenzenesulfonohydrazide], the IC50 in assay [1] came out at 1520 ± 212 nM; in assay [2], 2.79 ± 0.5 µM.
Consider `COc1ccc(OC)c(C(O)CNC(=O)CN)c1` (stereo not shown) [Midodrine], for which the “type of inhibition of PON1” value in assay [3] was “competitive inhibition”.
Consider `O=S(=O)(NNc1nc2ccccc2nc1NNS(=O)(=O)c1ccccc1)c1ccccc1` [Compound 6a, N’,N’’’-(quinoxaline-2,3-diyl)dibenzenesulfonohydrazide], for which the IC50 was 47.5 ± 0.8 nM in assay [1] and 3.15 ± 0.032 µM in assay [2].
